Source: patent US12415834B2, “GhR-binding peptide and composition comprising same” (priority 2021, dated 2025)
Starred links: 1 amine or outer side, 2 acyl side, 3 side chain; linkers in the order of their positions; H or OH if unused. Positions of bridges follow the written chain, without caps; N, C: chain ends. Non-standard residues stand in square brackets, D forms with d. Residues, ends and D or L forms follow the SMILES beside them. Groups on a side chain read outwards from the residue. *: point of attachment. X15 = NC(=O)[C@H](CCCCN*)NC(=O)COCCOCCNC(=O)COCCOCCNC(=O)CC[C@H](NC(=O)CC[C@H](NC(=O)CCCCCCCCCCCCCCCC(=O)O)C(=O)O)C(=O)O; X11 = NC(=O)[C@H](CCCCN*)NC(=O)CC[C@H](NC(=O)CC[C@H](NC(=O)CCCCCCCCCCCCCCCC(=O)O)C(=O)O)C(=O)O; X10 = NC(=O)[C@H](CCCCN*)NC(=O)CC[C@H](NC(=O)CC[C@H](NC(=O)CCCc1ccc(I)cc1)C(=O)O)C(=O)O; X17 = NC(=O)[C@H](CCCCN*)NC(=O)CC[C@H](NC(=O)CCCc1ccc(I)cc1)C(=O)O; Trp(1-CH2CO) = O=C([C@H](Cc1cn(CC(=O)[*:3])c2ccccc12)N[*:1])[*:2]; Trp(5-OMe) = COc1ccc2[nH]cc(C[C@H](N)C(=O)O)c2c1; Butanoyl(4-(4-I-phenyl)) = O=C(CCCc1ccc(I)cc1)*; Trp(5-OH) = N[C@@H](Cc1c[nH]c2ccc(O)cc12)C(=O)O; Phe(4-COOH) = N[C@@H](Cc1ccc(C(=O)O)cc1)C(=O)O; Piperazinyl(4-CH2COOH) = O=C(O)CN1CCN(*)CC1; X7 = O=C(O)CN1CCC(N[*:1])(C(=O)[*:2])CC1; C16 diacid = O=C(O)CCCCCCCCCCCCCCC(=O)*; γGlu = O=C(O)[C@H](CCC(=O)[*:2])N[*:1]; Hexanoyl(6-Ph) = O=C(CCCCCc1ccccc1)*; X2 = O=C([C@@H]1CCCN1[*:2])[*:1]; hArg = N=C(N)NCCCC[C@H](N)C(=O)O; NMeK = CN[C@@H](CCCCN)C(=O)O; Aib = CC(C)(N)C(=O)O; CO = O=C([*:1])[*:2]

Molecular target: T1, Recombinant human GhR-Fc protein (Homo sapiens, UniProt P10912)
T1 construct: purchased R&D Systems
T1 sequence (P10912 with tags, fused parts or gaps limits assumed): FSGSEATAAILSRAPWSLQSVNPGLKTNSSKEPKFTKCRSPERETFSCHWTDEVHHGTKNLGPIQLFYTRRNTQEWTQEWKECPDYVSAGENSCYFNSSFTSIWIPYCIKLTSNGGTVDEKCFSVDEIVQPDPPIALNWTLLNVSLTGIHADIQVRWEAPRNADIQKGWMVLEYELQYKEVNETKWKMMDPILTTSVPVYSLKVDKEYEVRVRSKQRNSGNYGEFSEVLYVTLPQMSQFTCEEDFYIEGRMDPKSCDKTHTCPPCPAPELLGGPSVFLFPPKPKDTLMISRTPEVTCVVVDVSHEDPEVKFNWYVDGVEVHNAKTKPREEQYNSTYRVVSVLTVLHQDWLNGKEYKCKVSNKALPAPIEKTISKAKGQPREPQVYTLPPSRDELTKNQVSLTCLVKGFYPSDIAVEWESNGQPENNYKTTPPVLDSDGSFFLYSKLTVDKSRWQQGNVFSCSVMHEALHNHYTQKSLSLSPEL
Experiment: SPR binding assay (Biacore T200, single-cycle kinetics) of peptides against immobilized human GhR-Fc
Conditions: SPR, hGhR; Table 1 bicyclic peptides; KD calculated from ka and kd; read-out: KD
Method in brief: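 Human GhR-Fc amine-coupled to a CM5 chip at pH 4.0; running buffer HBS-EP with 1% DMSO. Peptides measured by single-cycle kinetics on Biacore T200, with solvent correction and baseline subtraction. KD calculated from fitted ka and kd.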

SMILES	Kd
CC(C)[C@@H]1NC(=O)[C@H](C(C)C)NC(=O)[C@@H]2CCCCNC(=O)Cn3cc(c4ccccc43)C[C@H](NC(=O)[C@H](CC(N)=O)NC(=O)[C@H](CO)NC1=O)C(=O)N[C@@H](Cc1ccc(C(=O)O)cc1)C(=O)N[C@@H](CCCCNC(=N)N)C(=O)N[C@@H](Cc1c[nH]c3ccc(O)cc13)C(=O)NC(C)(C)C(=O)N[C@@H](C(C)C)C(=O)N[C@H](C(=O)NCCCC[C@H](NC(=O)CC[C@H](NC(=O)CC[C@H](NC(=O)CCCc1ccc(I)cc1)C(=O)O)C(=O)O)C(N)=O)CSCC(=O)N[C@@H](Cc1ccc(C(=O)O)cc1)C(=O)N2C [Compound 7] ({CH2CO}-[Phe(4-COOH)][NMeK]VVSN[Trp(1-CH2CO)][Phe(4-COOH)][hArg][Trp(5-OH)][Aib]VC-X10; lactam 2-7; thioether N-13)	0.96 nM
CC(C)[C@@H]1NC(=O)[C@H](C(C)C)NC(=O)[C@@H]2CCCCNC(=O)Cn3cc(c4ccccc43)C[C@H](NC(=O)[C@H](CC(N)=O)NC(=O)[C@H](CO)NC1=O)C(=O)N[C@@H](Cc1ccc(C(=O)O)cc1)C(=O)N[C@@H](CCCCN)C(=O)N[C@@H](Cc1c[nH]c3ccc(O)cc13)C(=O)NC(C)(C)C(=O)N[C@@H](C(C)C)C(=O)N[C@H](C(=O)NCCCC[C@H](NC(=O)CC[C@H](NC(=O)CC[C@H](NC(=O)CCCc1ccc(I)cc1)C(=O)O)C(=O)O)C(N)=O)CSCC(=O)N[C@@H](Cc1ccc(O)cc1)C(=O)N2C [Compound 26] ({CH2CO}-Y[NMeK]VVSN[Trp(1-CH2CO)][Phe(4-COOH)]K[Trp(5-OH)][Aib]VC-X10; lactam 2-7; thioether N-13)	1.59 nM
CC(C)[C@@H]1NC(=O)[C@H](C(C)C)NC(=O)[C@@H]2CCCCNC(=O)[C@@H]3CCCN3C(=O)Cn3cc(c4ccccc43)C[C@H](NC(=O)[C@H](CC(N)=O)NC(=O)[C@H](CO)NC1=O)C(=O)N[C@@H](Cc1ccc(O)cc1)C(=O)N[C@@H](CCCCN)C(=O)N[C@@H](Cc1c[nH]c3ccc(O)cc13)C(=O)NC(C)(C)C(=O)N[C@@H](C(C)C)C(=O)N[C@H](C(=O)NCC(N)=O)CSCC(=O)N[C@@H](Cc1ccc(O)cc1)C(=O)N2C [Compound 4] ({CH2CO}-Y[NMeK]VVSN[Trp(1-CH2CO)]YK[Trp(5-OH)][Aib]VCG-NH2; linker 2-7 via X2; thioether N-13)	1.07 nM
CC(C)[C@@H]1NC(=O)[C@H](C(C)C)NC(=O)[C@@H]2CCCCNC(=O)Cn3cc(c4ccccc43)C[C@H](NC(=O)[C@H](CC(N)=O)NC(=O)[C@H](CO)NC1=O)C(=O)N[C@@H](Cc1ccc(O)cc1)C(=O)N[C@@H](CCCCN)C(=O)N[C@@H](Cc1c[nH]c3ccc(O)cc13)C(=O)NC(C)(C)C(=O)N[C@@H](C(C)C)C(=O)N[C@H](C(=O)NCCCC[C@H](NC(=O)CC[C@H](NC(=O)CC[C@H](NC(=O)CCCc1ccc(I)cc1)C(=O)O)C(=O)O)C(N)=O)CSCC(=O)N[C@@H](Cc1ccc(C(=O)O)cc1)C(=O)N2C [Compound 21] ({CH2CO}-[Phe(4-COOH)][NMeK]VVSN[Trp(1-CH2CO)]YK[Trp(5-OH)][Aib]VC-X10; lactam 2-7; thioether N-13)	1.07 nM
CC(C)[C@@H]1NC(=O)[C@H](C(C)C)NC(=O)[C@@H]2CCCCNC(=O)Cn3cc(c4ccccc43)C[C@H](NC(=O)[C@H](CC(N)=O)NC(=O)[C@H](CO)NC1=O)C(=O)N[C@@H](Cc1ccc(O)cc1)C(=O)N[C@@H](CCCCN)C(=O)N[C@@H](Cc1c[nH]c3ccc(O)cc13)C(=O)NC(C)(C)C(=O)N[C@@H](C(C)C)C(=O)N[C@H](C(=O)NCC(=O)N1CCC[C@H]1C(=O)N[C@H](CO)C(=O)N[C@H](CO)C(=O)N[C@H](CO)C(=O)N[C@@H](CCCCNC(=O)CC[C@H](NC(=O)CC[C@H](NC(=O)CCCCCCCCCCCCCCC(=O)O)C(=O)O)C(=O)O)C(N)=O)CSCC(=O)N[C@@H](Cc1ccc(C(=O)O)cc1)C(=O)N2C [Compound 20] ({CH2CO}-[Phe(4-COOH)][NMeK]VVSN[Trp(1-CH2CO)]YK[Trp(5-OH)][Aib]VCGP[dS][dS][dS]K([γGlu-γGlu-C16 diacid])-NH2; lactam 2-7; thioether N-13)	1.25 nM
CC(C)[C@@H]1NC(=O)[C@H](C(C)C)NC(=O)[C@@H]2CCCCNC(=O)Cn3cc(c4ccccc43)C[C@H](NC(=O)[C@H](CC(N)=O)NC(=O)[C@H](CO)NC1=O)C(=O)N[C@@H](Cc1ccc(C(=O)O)cc1)C(=O)N[C@@H](CCCCN)C(=O)N[C@@H](Cc1c[nH]c3ccc(O)cc13)C(=O)NC(C)(C)C(=O)N[C@@H](C(C)C)C(=O)N[C@H](C(=O)NCCCC[C@H](NC(=O)CC[C@H](NC(=O)CC[C@H](NC(=O)CCCCCCCCCCCCCCCC(=O)O)C(=O)O)C(=O)O)C(N)=O)CSCC(=O)N[C@@H](Cc1ccc(C(=O)O)cc1)C(=O)N2C [Compound 61] ({CH2CO}-[Phe(4-COOH)][NMeK]VVSN[Trp(1-CH2CO)][Phe(4-COOH)]K[Trp(5-OH)][Aib]VC-X11; lactam 2-7; thioether N-13)	2.53 nM
CC(C)[C@@H]1NC(=O)[C@H](C(C)C)NC(=O)[C@@H]2CCCCNC(=O)Cn3cc(c4ccccc43)C[C@H](NC(=O)[C@H](CC(N)=O)NC(=O)[C@H](CO)NC1=O)C(=O)N[C@@H](Cc1ccc(C(=O)O)cc1)C(=O)N[C@@H](CCCCN)C(=O)N[C@@H](Cc1c[nH]c3ccc(O)cc13)C(=O)NC(C)(C)C(=O)N[C@@H](C(C)C)C(=O)N[C@H](C(=O)NCCCC[C@H](NC(=O)COCCOCCNC(=O)COCCOCCNC(=O)CC[C@H](NC(=O)CC[C@H](NC(=O)CCCCCCCCCCCCCCCC(=O)O)C(=O)O)C(=O)O)C(N)=O)CSCC(=O)N[C@@H](Cc1ccc(C(=O)O)cc1)C(=O)N2C [Compound 65] ({CH2CO}-[Phe(4-COOH)][NMeK]VVSN[Trp(1-CH2CO)][Phe(4-COOH)]K[Trp(5-OH)][Aib]VC-X15; lactam 2-7; thioether N-13)	3.33 nM
CC(C)[C@@H]1NC(=O)[C@H](C(C)C)NC(=O)[C@@H]2CCCCNC(=O)Cn3cc(c4ccccc43)C[C@H](NC(=O)[C@H](CC(N)=O)NC(=O)[C@H](CO)NC1=O)C(=O)N[C@@H](Cc1ccc(O)cc1)C(=O)N[C@@H](CCCCN)C(=O)N[C@@H](Cc1c[nH]c3ccc(O)cc13)C(=O)NC(C)(C)C(=O)N[C@@H](C(C)C)C(=O)N[C@H](C(=O)NCC(=O)N1CCC[C@H]1C(=O)N[C@H](CO)C(=O)N[C@H](CO)C(=O)N[C@H](CO)C(=O)N[C@@H](CCCCNC(=O)CC[C@H](NC(=O)CC[C@H](NC(=O)CCCCCCCCCCCCCCC(=O)O)C(=O)O)C(=O)O)C(N)=O)CSCC(=O)N[C@@H](Cc1ccc(O)cc1)C(=O)N2C [Compound 31] ({CH2CO}-Y[NMeK]VVSN[Trp(1-CH2CO)]YK[Trp(5-OH)][Aib]VCGP[dS][dS][dS]K([γGlu-γGlu-C16 diacid])-NH2; lactam 2-7; thioether N-13)	0.92 nM
CC(C)[C@@H]1NC(=O)[C@H](C(C)C)NC(=O)[C@@H]2CCCCNC(=O)Cn3cc(c4ccccc43)C[C@H](NC(=O)[C@H](CC(N)=O)NC(=O)[C@H](CO)NC1=O)C(=O)N[C@@H](Cc1ccc(C(=O)O)cc1)C(=O)N[C@@H](CCCCN)C(=O)N[C@@H](Cc1c[nH]c3ccc(O)cc13)C(=O)NC(C)(C)C(=O)N[C@@H](C(C)C)C(=O)N[C@H](C(=O)NCCCC[C@H](NC(=O)CC[C@H](NC(=O)CCCc1ccc(I)cc1)C(=O)O)C(N)=O)CSCC(=O)N[C@@H](Cc1ccc(C(=O)O)cc1)C(=O)N2C [Compound 13] ({CH2CO}-[Phe(4-COOH)][NMeK]VVSN[Trp(1-CH2CO)][Phe(4-COOH)]K[Trp(5-OH)][Aib]VC-X17; lactam 2-7; thioether N-13)	1.36 nM

Same assay, conditions: SPR, hGhR; Table 2 monocyclic peptides; KD calculated from ka and kd; read-out: KD

SMILES	Kd
COc1ccc2[nH]cc(C[C@@H]3NC(=O)[C@H](CC(N)=O)NC(=O)[C@H](CO)NC(=O)[C@H](C(C)C)NC(=O)[C@H](C(C)C)NC(=O)[C@H](CCCCNC(=O)CC[C@H](NC(=O)CCCCCc4ccccc4)C(=O)O)N(C)C(=O)[C@H](Cc4ccc(C(=O)O)cc4)NC(=O)CSC[C@@H](C(N)=O)NC(=O)[C@H](C(C)C)NC(=O)C4(CCN(CC(=O)O)CC4)NC(=O)[C@H](Cc4c[nH]c5ccc(O)cc45)NC(=O)[C@H](CCCCN)NC(=O)[C@H](Cc4ccc(C(=O)O)cc4)NC3=O)c2c1 [Compound 38] ({CH2CO}-[Phe(4-COOH)][NMeK]([γGlu-Hexanoyl(6-Ph)])VVSN[Trp(5-OMe)][Phe(4-COOH)]K[Trp(5-OH)][X7]VC-NH2; thioether N-13)	2.82 nM
COc1ccc2[nH]cc(C[C@@H]3NC(=O)[C@H](CC(N)=O)NC(=O)[C@H](CO)NC(=O)[C@H](C(C)C)NC(=O)[C@H](C(C)C)NC(=O)[C@H](CCCCNC(=O)CC[C@H](NC(=O)CCCc4ccc(I)cc4)C(=O)O)N(C)C(=O)[C@H](Cc4ccc(O)cc4)NC(=O)CSC[C@@H](C(N)=O)NC(=O)[C@H](C(C)C)NC(=O)C(C)(C)NC(=O)[C@H](Cc4c[nH]c5ccc(O)cc45)NC(=O)[C@H](CCCCNC(=O)N4CCN(CC(=O)O)CC4)NC(=O)[C@H](Cc4ccc(O)cc4)NC3=O)c2c1 [Compound 44] ({CH2CO}-Y[NMeK]([γGlu-Butanoyl(4-(4-I-phenyl))])VVSN[Trp(5-OMe)]YK([CO-Piperazinyl(4-CH2COOH)])[Trp(5-OH)][Aib]VC-NH2; thioether N-13)	9.67 nM
COc1ccc2[nH]cc(C[C@@H]3NC(=O)[C@H](CC(N)=O)NC(=O)[C@H](CO)NC(=O)[C@H](C(C)C)NC(=O)[C@H](C(C)C)NC(=O)[C@H](CCCCNC(=O)CC[C@H](NC(=O)CCCc4ccc(I)cc4)C(=O)O)N(C)C(=O)[C@H](Cc4ccc(C(=O)O)cc4)NC(=O)CSC[C@@H](C(N)=O)NC(=O)[C@H](C(C)C)NC(=O)C(C)(C)NC(=O)[C@H](Cc4c[nH]c5ccc(O)cc45)NC(=O)[C@H](CCCCN)NC(=O)[C@H](Cc4ccc(C(=O)O)cc4)NC3=O)c2c1 [Compound 39] ({CH2CO}-[Phe(4-COOH)][NMeK]([γGlu-Butanoyl(4-(4-I-phenyl))])VVSN[Trp(5-OMe)][Phe(4-COOH)]K[Trp(5-OH)][Aib]VC-NH2; thioether N-13)	2.19 nM
